What all share (test): AK assay 384-well format, Prestwick library screening
In test [1] the test system is A. baumannii strain 98-37-09. Format: cell-based, Acinetobacter baumannii. The settings on record: 50 μM final drug concentration; for fold induction at 50 µM: Acinetobacter baumannii, 983709, 3 h.
Test [2] concerns S. aureus strain USA300-0114. Format: cell-based, Staphylococcus aureus. The following applies: 50 μM final drug concentration; for fold induction at 50 µM: Staphylococcus aureus, USA300, 3 h.
In another test the test system is K. pneumoniae. Format: cell-based, Klebsiella pneumoniae. The following applies: 50 μM final drug concentration; for fold induction at 50 µM: Klebsiella pneumoniae, 3 h.
In a further test the test system is P. aeruginosa. The class given is cell-based, Pseudomonas aeruginosa. The settings on record: 50 μM final drug concentration; for fold induction at 50 µM: Pseudomonas aeruginosa, 3 h.
The test system of the next test is E. coli. Format: cell-based, Escherichia coli. The following applies: 50 μM final drug concentration; for fold induction at 50 µM: Escherichia coli, 3 h.
In the next test the test system is E. faecium. Format: cell-based, Enterococcus faecium. The following applies: 50 μM final drug concentration; for fold induction at 50 µM: Enterococcus faecium, 3 h.
For a further test, the system named is E. cloacae. Format: cell-based, Enterobacter cloacae. The following applies: 50 μM final drug concentration; for fold induction at 50 µM: Enterobacter cloacae, 3 h.
Where [3] appears, read: 384-well format, cutoff for positive-scoring molecules 3-fold increase.
Setting [4] is: cutoff for positive-scoring molecules 3-fold increase, read-out: AK-based Prestwick Library Screening Results, A. baumannii (fold increase in extracellular AK activity).
[5] abbreviates: cutoff for positive-scoring molecules 3-fold increase, read-out: AK-based Prestwick Library Screening Results, S. aureus (fold increase in extracellular AK activity).
Where [6] appears, read: cutoff for positive-scoring molecules 3-fold increase, read-out: AK-based Prestwick Library Screening Results, K. pneumoniae (fold increase in extracellular AK activity).
Where [7] appears, read: cutoff for positive-scoring molecules 3-fold increase, read-out: AK-based Prestwick Library Screening Results, P. aeruginosa (fold increase in extracellular AK activity).
The mark [8] stands for this setting: cutoff for positive-scoring molecules 3-fold increase, read-out: AK-based Prestwick Library Screening Results, E. coli (fold increase in extracellular AK activity).
[9] abbreviates: cutoff for positive-scoring molecules 3-fold increase, read-out: AK-based Prestwick Library Screening Results, E. faecium (fold increase in extracellular AK activity).
[10] abbreviates: cutoff for positive-scoring molecules 3-fold increase, read-out: AK-based Prestwick Library Screening Results, E. cloacae (fold increase in extracellular AK activity).

Structures can show the parent of a compound that is named as a salt. Where two headings read alike, the source gives them in different places.

`CC(C)(C)NCC(O)c1cc(Cl)c(N)c(Cl)c1` (centres unmarked) [Clenbuterol hydrochloride]: the fold induction at 50 µM in test [1] (planktonic A. baumannii, […], read-out: AK-based Prestwick Library Screening Results, A. baumannii (increase in extracellular AK activity)) came to 0.8; in test [2] (planktonic S. aureus, […], read-out: AK-based Prestwick Library Screening Results, S. aureus (increase in extracellular AK activity)), 0.7; in the test on K. pneumoniae (planktonic K. pneumoniae, […], read-out: AK-based Prestwick Library Screening Results, K. pneumoniae (increase in extracellular AK activity)) it was 0.7; in the test with P. aeruginosa (planktonic P. aeruginosa, […], read-out: AK-based Prestwick Library Screening Results, P. aeruginosa (increase in extracellular AK activity)), 0.8; in the test with E. coli (planktonic E. coli, […], read-out: AK-based Prestwick Library Screening Results, E. coli (increase in extracellular AK activity)) it was 0.8; with E. faecium (planktonic E. faecium, […], read-out: AK-based Prestwick Library Screening Results, E. faecium (increase in extracellular AK activity)), 0.9. Further, the fold induction at 50 µM in the test with E. cloacae (planktonic E. cloacae, […], read-out: AK-based Prestwick Library Screening Results, E. cloacae (increase in extracellular AK activity)) came to 0.9.

Regarding Alverine citrate salt, in test [1] (setting [3]), the “AK-based Prestwick Library Screening Results, A. baumannii (increase in extracellular AK activity)” value was 0.9. In test [2] (setting [3]), the “AK-based Prestwick Library Screening Results, S. aureus (increase in extracellular AK activity)” value amounted to 0.7. The “AK-based Prestwick Library Screening Results, K. pneumoniae (increase in extracellular AK activity)” value in the test with K. pneumoniae (setting [3]) amounted to 0.7. Moreover, in the test with P. aeruginosa (setting [3]), the “AK-based Prestwick Library Screening Results, P. aeruginosa (increase in extracellular AK activity)” value amounted to 0.8. In addition, the “AK-based Prestwick Library Screening Results, E. coli (increase in extracellular AK activity)” value in the test with E. coli (setting [3]) is recorded as 0.9. In addition, the “AK-based Prestwick Library Screening Results, E. faecium (increase in extracellular AK activity)” value in the test on E. faecium (setting [3]) was 0.9. Besides, the “AK-based Prestwick Library Screening Results, E. cloacae (increase in extracellular AK activity)” value in the test with E. cloacae (setting [3]) was determined as 0.9.

Consider `CN1CCC(OC(c2ccccc2)c2ccccc2)CC1` [Diphenylpyraline hydrochloride], for which the fold induction at 50 µM amounted to 1.3 in test [1] (setting [4]); 1.2 in test [2] (setting [5]); 1 in the test with K. pneumoniae (setting [6]); 1.1 in the test with P. aeruginosa (setting [7]); 1.3 in the test on E. coli (setting [8]); 1.1 in the test on E. faecium (setting [9]). Also, the fold induction at 50 µM with E. cloacae (setting [10]) amounted to 1.4.

For `C=CCOc1ccccc1OCC(O)CNC(C)C` (centres unmarked) [Oxprenolol hydrochloride], the fold induction at 50 µM turned out to be 0.6 in test [1] (planktonic A. baumannii, positive cutoff 3-fold increase, read-out: AK-based Prestwick library screening result, A. baumannii (fold increase in extracellular AK activity)); 0.6 in test [2] (planktonic S. aureus, positive cutoff 3-fold increase, read-out: AK-based Prestwick library screening result, S. aureus (fold increase in extracellular AK activity)); 0.6 in the test on K. pneumoniae (planktonic K. pneumoniae, positive cutoff 3-fold increase, read-out: AK-based Prestwick library screening result, K. pneumoniae (fold increase in extracellular AK activity)); 0.6 in the test with P. aeruginosa (planktonic P. aeruginosa, positive cutoff 3-fold increase, read-out: AK-based Prestwick library screening result, P. aeruginosa (fold increase in extracellular AK activity)); 0.7 in the test with E. coli (planktonic E. coli, positive cutoff 3-fold increase, read-out: AK-based Prestwick library screening result, E. coli (fold increase in extracellular AK activity)); 0.9 with E. faecium (planktonic E. faecium, positive cutoff 3-fold increase, read-out: AK-based Prestwick library screening result, E. faecium (fold increase in extracellular AK activity)). The fold induction at 50 µM in the test on E. cloacae (planktonic E. cloacae, positive cutoff 3-fold increase, read-out: AK-based Prestwick library screening result, E. cloacae (fold increase in extracellular AK activity)) is 0.9.

For the compound `C=CC(N)CCC(=O)O` (centres unmarked) [Vigabatrin], the fold induction at 50 µM in test [1] (planktonic A. baumannii, cutoff for positive-scoring molecules 3-fold increase, read-out: AK-based Prestwick Library Screening Results, A. baumannii (increase in extracellular AK activity)) came to 1.1; in test [2] (planktonic S. aureus, cutoff for positive-scoring molecules 3-fold increase, read-out: AK-based Prestwick Library Screening Results, S. aureus (increase in extracellular AK activity)), 0.7; in the test with K. pneumoniae (planktonic K. pneumoniae, cutoff for positive-scoring molecules 3-fold increase, read-out: AK-based Prestwick Library Screening Results, K. pneumoniae (increase in extracellular AK activity)), 0.8; with P. aeruginosa (planktonic P. aeruginosa, cutoff for positive-scoring molecules 3-fold increase, read-out: AK-based Prestwick Library Screening Results, P. aeruginosa (increase in extracellular AK activity)), 0.9; in the test on E. coli (planktonic E. coli, cutoff for positive-scoring molecules 3-fold increase, read-out: AK-based Prestwick Library Screening Results, E. coli (increase in extracellular AK activity)) it was 1; with E. faecium (planktonic E. faecium, cutoff for positive-scoring molecules 3-fold increase, read-out: AK-based Prestwick Library Screening Results, E. faecium (increase in extracellular AK activity)) it was 0.9. Besides, in the test with E. cloacae (planktonic E. cloacae, cutoff for positive-scoring molecules 3-fold increase, read-out: AK-based Prestwick Library Screening Results, E. cloacae (increase in extracellular AK activity)), the fold induction at 50 µM stood at 0.8.

As for `O=C(O)CCNC(=O)c1ccc(/N=N/c2ccc(O)c(C(=O)O)c2)cc1` [Balsalazide Sodium], the fold induction at 50 µM was determined as 0.5 in test [1] (planktonic, cutoff for positive-scoring molecules 3-fold increase, read-out: AK-based Prestwick Library Screening Results, A. baumannii (fold increase in extracellular AK activity)); 0.4 in test [2] (planktonic, cutoff for positive-scoring molecules 3-fold increase, read-out: AK-based Prestwick Library Screening Results, S. aureus (fold increase in extracellular AK activity)); 0.7 in the test with K. pneumoniae (planktonic, cutoff for positive-scoring molecules 3-fold increase, read-out: AK-based Prestwick Library Screening Results, K. pneumoniae (fold increase in extracellular AK activity)); 0.5 in the test on P. aeruginosa (planktonic, cutoff for positive-scoring molecules 3-fold increase, read-out: AK-based Prestwick Library Screening Results, P. aeruginosa (fold increase in extracellular AK activity)); 0.5 in the test on E. coli (planktonic, cutoff for positive-scoring molecules 3-fold increase, read-out: AK-based Prestwick Library Screening Results, E. coli (fold increase in extracellular AK activity)); 0.9 in the test on E. faecium (planktonic, cutoff for positive-scoring molecules 3-fold increase, read-out: AK-based Prestwick Library Screening Results, E. faecium (fold increase in extracellular AK activity)). The fold induction at 50 µM in the test with E. cloacae (planktonic, cutoff for positive-scoring molecules 3-fold increase, read-out: AK-based Prestwick Library Screening Results, E. cloacae (fold increase in extracellular AK activity)) came out at 0.4.

For the compound `Cc1scc2c1N(C(=O)CN1CCN(C)CC1)c1ccccc1NC2=O` [Telenzepine dihydrochloride], the fold induction at 50 µM in test [1] (planktonic A. baumannii, 384-well, cutoff for positive-scoring molecules 3-fold increase, read-out: AK-based Prestwick Library Screening Results: A. baumannii (increase in extracellular AK activity)) was 1.6; in test [2] (planktonic S. aureus, 384-well, cutoff for positive-scoring molecules 3-fold increase, read-out: AK-based Prestwick Library Screening Results: S. aureus (increase in extracellular AK activity)) it was 1.3; in the test on K. pneumoniae (planktonic K. pneumoniae, 384-well, cutoff for positive-scoring molecules 3-fold increase, read-out: AK-based Prestwick Library Screening Results: K. pneumoniae (increase in extracellular AK activity)), 1; in the test with P. aeruginosa (planktonic P. aeruginosa, 384-well, cutoff for positive-scoring molecules 3-fold increase, read-out: AK-based Prestwick Library Screening Results: P. aeruginosa (increase in extracellular AK activity)), 1.2; with E. coli (planktonic E. coli, 384-well, cutoff for positive-scoring molecules 3-fold increase, read-out: AK-based Prestwick Library Screening Results: E. coli (increase in extracellular AK activity)) it was 1.5; in the test on E. faecium (planktonic E. faecium, 384-well, cutoff for positive-scoring molecules 3-fold increase, read-out: AK-based Prestwick Library Screening Results: E. faecium (increase in extracellular AK activity)) it was 1.1. In the test on E. cloacae (planktonic E. cloacae, 384-well, cutoff for positive-scoring molecules 3-fold increase, read-out: AK-based Prestwick Library Screening Results: E. cloacae (increase in extracellular AK activity)), the fold induction at 50 µM was determined as 1.4.

As to `C=C1c2cccc(O)c2C(=O)C2=C(O)[C@]3(O)C(=O)C(C(N)=O)=C(O)[C@@H](N(C)C)[C@@H]3[C@@H](O)[C@H]12` [Methacycline hydrochloride], the fold induction at 50 µM stood at 4.2 in test [1] (setting [4]); 1.9 in test [2] (setting [5]); 0.2 in the test on K. pneumoniae (setting [6]); 0.2 with P. aeruginosa (setting [7]); 3.2 in the test with E. coli (setting [8]); 0.9 with E. faecium (setting [9]). In addition, the fold induction at 50 µM in the test on E. cloacae (setting [10]) was 0.4.

For the origin of these results see patent US10004701B2, “Methods and compositions for treating infection” (UNIVERSITY OF ROCHESTER, priority 2012, dated 2018).
